Measurements as given in patent publication US20190284192A1, “NITROGENOUS MACROCYCLIC COMPOUND, PREPARATION METHOD THEREFOR, PHARMACEUTICAL COMPOSITION AND APPLICATION THEREOF” (LUOXIN PHARMACEUTICAL (SHANGHAI) CO., LTD., priority 2016, published 2019).
Where two headings read alike, the source gives them in different places.

Experiments:
[1] = biological target: T1, BRD4 (BD2) (Homo sapiens, UniProt O60885); experiment: BRD4 (BD2) bromodomain binding, HTRF; conditions: 2 h incubation at r.t.
T1 construct: Each member comprises two tandem bromodomains (BD1 and BD2) for recognizing the acetylated lysine residues

[2] = biological target: T2, BRD4 (BD1) (Homo sapiens, UniProt O60885); experiment: BRD4 (BD1) bromodomain binding, HTRF; conditions: 2 h incubation at r.t.
T2 construct: Each member comprises two tandem bromodomains (BD1 and BD2) for recognizing the acetylated lysine residues

[3] = system: MV-4-11 cells; experiment: Inhibitory effect on MV-4-11 cells (CellTiter-Glo); format: cell-based; conditions: Homo sapiens, read-out: MV-4-11
[4] = MV4-11, 72 hours, CellTiter-Glo

Row | SMILES | IC50 [1] | IC50 [2] | IC50 [3, 4] | IC50 ([3]; MV4-11, 72 h)
1 | CCS(=O)(=O)Cc1ccc2c(c1)-c1cn(C)c(=O)cc1[C@H](C)N=C2c1ccc(OC)cc1 [Compound 4053, (S)-10-((ethylsulfonyl)methyl)-7-(4-methoxylphenyl)-2,5-dimethyl-2,5-dihydro-3H-benzo[c]pyrido[3,4-e]azepin-3-ketone] | 1 nM | 2 nM | 7 nM | 
2 | CCS(=O)(=O)Cc1ccc2c(c1)-c1cn(C)c(=O)cc1[C@H](C)N=C2c1ccc(F)c(OC)c1 [Compound 4054, (S)-10-((ethylsulfonyl)methyl)-7-(4-fluoro-3-methoxylphenyl)-2,5-dimethyl-2,5-dihydro-3H-benzo[c]pyrido[3,4-e]azepin-3-ketone] | 1 nM | 2 nM | 9 nM | 
3 | CCS(=O)(=O)Cc1cc2c(cc1OC)C(c1ccc(F)cc1)=N[C@@H](C)c1cc(=O)n(C)cc1-2 [Compound 4057, (S)-10-((ethylsulfonyl)methyl)-7-(4-flurophenyl)-9-methoxyl-2,5-dimethyl-2,5-dihydro-3H-benzo[c]pyrido[3,4-e]azepin-3-ketone] | 1 nM | 2 nM | 4 nM | 
4 | CCS(=O)(=O)Nc1cc2c(cc1Cl)C(c1ccc(F)cc1)=N[C@@H](C)c1cc(=O)n(C)cc1-2 [Compound 4058] | 1 nM | 1 nM |  | 1 nM
5 | CCS(=O)(=O)Cc1ccc2c(c1)-c1cn(C)c(=O)cc1[C@H](C(C)C)N=C2c1ccc(F)cc1 [Compound 4060, (S)-10-((ethylsulfonyl)methyl)-7-(4-flurophenyl)-5-isopropyl-2-methyl-2,5-dihydro-3H-benzo[c]pyrido[3,4-e]azepin-3-ketone] | 1 nM | 2 nM | 19 nM | 
6 | CCS(=O)(=O)Nc1cc2c(cc1F)C(c1ccc(Cl)cc1)=N[C@@H](C)c1cc(=O)n(C)cc1-2 [Compound 4062, (S)—N-(7-(4-chlorophenyl)-9-fluoro-2,5-dimethyl-3-oxo-3,5-dihydro-2H-benzo[c]pyrido[3,4-e]azepin-10-yl)ethylsulfonamide] | 1 nM | 1 nM | 1 nM | 
7 | CCS(=O)(=O)Cc1ccc2c(c1)-c1cn(C)c(=O)cc1[C@H](C)N=C2c1ccc(F)c(O)c1 [Compound 4064, (S)-10-((ethylsulfonyl)methyl)-7-(4-fluoro-3-hydroxylphenyl)-2,5-dimethyl-2,5-dihydro-3H-benzo[c]pyrido[3,4-e]azepin-3-ketone] | 1 nM | 2 nM | 8 nM | 
8 | CC[C@@H]1N=C(c2ccc(F)cc2)c2cc(Cl)c(NS(=O)(=O)CC)cc2-c2cn(C)c(=O)cc21 [Compound 4065, (S)—N-(9-chloro-5-ethyl-7-(4-flurophenyl)-2-methyl-3-oxo-3,5-dihydro-2H-benzo[c]pyrido[3,4-e]azepin-10-yl)ethylsulfonamide] | 1 nM | 2 nM | 1 nM | 
9 | CC[C@@H]1N=C(c2ccc(F)cc2)c2cc(F)c(NS(=O)(=O)CC)cc2-c2cn(C)c(=O)cc21 [Compound 4066, (S)—N-(5-ethyl-9-fluoro-7-(4-flurophenyl)-2-methyl-3-oxo-3,5-dihydro-2H-benzo[c]pyrido[3,4-e]azepin-10-yl)ethylsulfonamide] | 1 nM | 1 nM | 0.4 nM | 
10 | CCS(=O)(=O)Cc1ccc2c(c1)-c1cn(C)c(=O)cc1[C@H](CC(=O)O)N=C2c1ccc(F)cc1 [Compound 4067, (S)-2-(10-((ethylsulfonyl)methyl)-7-(4-flurophenyl)-2-methyl-3-oxo-3,5-dihydro-2H-benzo[c]pyrido[3,4-e]azepin-5-yl)acetic acid] | 1 nM | 6 nM | > 2000 nM | 
11 | CCS(=O)(=O)Nc1cc2c(cc1Cl)C(c1ccc(Cl)cc1)=N[C@@H](C)c1cc(=O)n(C)cc1-2 [Compound 4068, (S)—N-(9-chloro-7-(4-chlorophenyl)-2,5-dimethyl-3-oxo-3,5-dihydro-2H-benzo[c]pyrido[3,4-e]azepin-10-yl)ethylsulfonamide] | 0.5 nM | 1 nM | 1 nM | 
12 | C[C@@H]1N=C(c2ccc(F)cc2)c2cc(F)c(N)cc2-c2cn(C)c(=O)cc21 [Compound 4070, (S)-10-amino-9-fluoro-7-(4-flurophenyl)-2,5-dimethyl-2,5-dihydro-3H-benzo[c]pyrido[3,4-e]azepin-3-ketone] | 2 nM | 3 nM |  | 16 nM
13 | C[C@@H]1N=C(c2ccc(F)cc2)c2cc(F)c(NS(C)(=O)=O)cc2-c2cn(C)c(=O)cc21 [Compound 4074, (S)—N-(9-fluoro-7-(4-flurophenyl)-2,5-dimethyl-3-oxo-3,5-dihydro-2H-benzo[c]pyrido[3,4-e]azepin-10-yl) methylsulfamide] | 1 nM | 1 nM | 2 nM | 
14 | CCS(=O)(=O)Cc1ccc2c(c1)-c1cn(C)c(=O)cc1[C@H](C)N=C2c1ccc(C#N)cc1 [Compound 4075] | 2 nM | 4 nM | 10 nM | 
15 | CCS(=O)(=O)Cc1ccc2c(c1)-c1cn(C)c(=O)cc1[C@H](CC(N)=O)N=C2c1ccc(F)cc1 [Compound 4076, (S)-2-(10-((ethylsulfonyl)methyl)-7-(4-flurophenyl)-2-methyl-3-oxo-3,5-dihydro-2H-benzo[c]pyrido[3,4-e]azepin-5-yl)acetamide] | 1 nM | 2 nM | 114 nM | 
16 | CCS(=O)(=O)Nc1cc2c(cc1Cl)C(c1ccc(F)cc1)=N[C@@H](C1CC1)c1cc(=O)n(C)cc1-2 [Compound 4077, (S)—N-(9-chloro-5-cyclopropyl-7-(4-flurophenyl)-2-methyl-3-oxo-3,5-dihydro-2H-benzo[c]pyrido[3,4-e]azepin-10-yl)ethylsulfonamide] | 0.4 nM | 1 nM | 0.4 nM | 
17 | C[C@@H]1N=C(c2ccc(F)cc2)c2cc(Cl)c(NS(C)(=O)=O)cc2-c2cn(C)c(=O)cc21 [Compound 4079, (S)—N-(9-chloro-7-(4-flurophenyl)-2,5-dimethyl-3-oxo-3,5-dihydro-2H-benzo[c]pyrido[3,4-e]azepin-10-yl)methylsulfamide] | 1 nM | 3 nM | 1 nM | 

Continued, in another order:

Row | IC50 [1] | IC50 [2] | IC50 [3, 4] | SMILES | IC50 ([3]; MV4-11, 72 h)
18 | 2 nM | 2 nM | 28 nM | CC[S+]([O-])Cc1ccc2c(c1)-c1cn(C)c(=O)cc1[C@H](C)N=C2c1ccc(F)cc1 (stereo partly drawn) [Compound 4048, (5S)-10-((ethylsulfoxide)methyl)-7-(4-flurophenyl)-2,5-dimethyl-2,5-dihydro-3H-benzo[c]pyrido[3,4-e]azepin-3-ketone] | 
19 | 1 nM | 2 nM | 1 nM | CCS(=O)(=O)Nc1ccc2c(c1)-c1cn(C)c(=O)cc1[C@H](C)N=C2c1ccc(F)cc1 [Compound 4049, (S)—N-(7-(4-flurophenyl)-2,5-dimethyl-3-oxo-3,5-dihydro-2H-benzo[c]pyrido[3,4-e]azepin-10-yl)ethylsulfonamide] | 
20 | 3 nM | 5 nM | 42 nM | CCNC(=O)Nc1ccc2c(c1)-c1cn(C)c(=O)cc1[C@H](C)N=C2c1ccc(F)cc1 [Compound 4051, (S)-1-ethyl-3-(7-(4-flurophenyl)-2,5-dimethyl-3-oxo-3,5-dihydro-2H-benzo[c]pyrido[3,4-e]azepin-10-yl)urea] | 
21 | 2 nM | 6 nM | 55 nM | CCNS(=O)(=O)c1ccc2c(c1)-c1cn(C)c(=O)cc1[C@H](C)N=C2c1ccc(F)cc1 [Compound 4052, (S)—N-ethyl-7-(4-flurophenyl)-2,5-dimethyl-3-oxo-3,5-dihydro-2H-benzo[c]pyrido[3,4-e]azepin-10-sulfamide] | 
22 | 1 nM | 1 nM | 1 nM | CCS(=O)(=O)Nc1cc2c(cc1F)C(c1ccc(F)cc1)=N[C@@H](C)c1cc(=O)n(C)cc1-2 [Compound 4055, (S)—N-(9-fluoro-7-(4-flurophenyl)-2,5-dimethyl-3-oxo-3,5-dihydro-2H-benzo[c]pyrido[3,4-e]azepin-10-yl)ethylsulfonamide] | 
23 | 1 nM | 1 nM | 32 nM | CCNC(=O)C[C@@H]1N=C(c2ccc(F)cc2)c2ccc(CS(=O)(=O)CC)cc2-c2cn(C)c(=O)cc21 [Compound 4056, (S)—N-ethyl-2-(10-((ethylsulfonyl)methyl)-7-(4-flurophenyl)-2-methyl-3-oxo-3,5-dihydro-2H-benzo[c]pyrido[3,4-e]azepin-5-yl)acetamide] | 
24 | 1 nM | 2 nM | 7 nM | C[C@@H]1N=C(c2ccc(F)cc2)c2ccc(CS(C)(=O)=O)cc2-c2cn(C)c(=O)cc21 [Compound 4059, (S)-7-(4-flurophenyl)-2,5-dimethyl-10-((dimethylfulfone)methyl)-2,5-dihydro-3H-benzo[c]pyrido[3,4-e]azepin-3-ketone] | 
25 | 1 nM | 2 nM | 11 nM | CCS(=O)(=O)Cc1ccc2c(c1)-c1cn(C)c(=O)cc1[C@H](C)N=C2c1ccc(O)cc1 [Compound 4061, (S)-10-((ethylsulfonyl)methyl)-7-(4-hydroxylphenyl)-2,5-dimethyl-2,5-dihydro-3H-benzo[c]pyrido[3,4-e]azepin-3-ketone] | 
26 | 1 nM | 1 nM | 3 nM | CCS(=O)(=O)Cc1cc2c(cc1O)C(c1ccc(F)cc1)=N[C@@H](C)c1cc(=O)n(C)cc1-2 [Compound 4063, (S)-10-((ethylsulfonyl)methyl)-7-(4-flurophenyl)-9-hydroxyl-2,5-dimethyl-2,5-dihydro-3H-benzo[c]pyrido[3,4-e]azepin-3-ketone] | 
27 | 2 nM | 4 nM | 35 nM | C[C@@H]1N=C(c2ccc(F)cc2)c2cc(Cl)c(N)cc2-c2cn(C)c(=O)cc21 [Compound 4069, (S)-10-amino-9-chloro-7-(4-flurophenyl)-2,5-dimethyl-2,5-dihydro-3H-benzo[c]pyrido[3,4-e]azepin-3-ketone] | 
